Measurements published in publication PMC10539501 (Nature Communications, 2023).
Starred links: 1 amine or outer side, 2 acyl side, 3 side chain; linkers in the order of their positions; H or OH if unused. Non-standard residues stand in square brackets, D forms with d. Residues, ends and D or L forms follow the SMILES beside them. X3 = CC(C)C[C@H](N[*:1])C(=S)N[C@H](CC(C)C)C(=O)[*:2]; X4 = CC(C)C[C@H](N[*:1])C(=S)N1CCC[C@@H]1C(=O)[*:2]; X16 = CC(C)C[C@H](N[*:1])C(=S)N[C@H](C)C(=O)[*:2]; NMeL = CN[C@@H](CC(C)C)C(=O)O

Experiments:
[1] = format: physicochemical
[2] = PAMPA passive permeability; format: in vitro ADME;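 further: passive permeability across an artificial membrane in 96-well pre-coated PAMPA plates, which lack transporters and efflux systems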
Description: Encouraged by this, the passive permeability of the analogs was evaluated using an artificial membrane (PAMPA), which measures permeability of compounds in the absence of transporters and efflux systems[32].
96-well BD Corning® pre-coated PAMPA plates were used following the supplier’s protocol, details in Supplementary Information.

physchem = conditions: pH 7.4
[3] = Retention in hydrophobic C18 column by HPLC; conditions: Supplementary Fig 3d, logD7.4 vs tR
[4] = format: physicochemical; remark: listed apart in the source
Excerpt: Since reduced solvation of S also contributes to the lipophilicity of the thioamidated peptides, we sought to estimate the global desolvation of the macrocyclic peptides, which is affected by solvation of both N(H) and C(S). […] Thus, we evaluated the desolvation potential of the cyclic peptides by determining the distribution coefficients in heptane-ethylene glycol (logDh/e), a solvent system that provides an experimental estimate of desolvation or hydrogen bond potential[38].

in vitro [5] = format: in vitro ADME, human
Description: (§1) The Caco-2 cell (HTB-37^TM from ATCC, procured from NCCS, Pune) monolayer was washed and pre-incubated at 37 °C and 5% CO2 for 30 min with HBSS-HEPES buffer containing 1% DMSO prior to experimentation. The assay was performed 21 days post-seeding of cells. TEER values were measured before starting and after the completion of the assay. Acceptor and donor well concentrations of the peptides and controls were assessed through LC-MS/MS.

Caco-2 cells = experiment: in vitro; format: in vitro ADME, human; conditions: Caco-2
Description: as §1

in vitro [6] = conditions: both, human, plasma
Description: Blood was freshly drawn from three healthy adults, two male and one person of 26–28 year old. […] The plasma was separated by centrifugation. […] For checking metabolic stability, the required volume of plasma was pre-incubated at 37 °C prior to the experiment for 2 min, followed by spiking with the peptides. At different time points, plasma was aliquoted. The supernatant was separated and used for RP-HPLC quantification. Rapid Equilibrium Dialysis (RED) assay was performed to assess the plasma protein binding of the peptides following the supplier’s protocol.

pepsin = pepsin (Sus scrofa, UniProt P00791); experiment: in vitro; conditions: simulated gastric fluid, pH 1.2
pepsin, sequence (P00791 60-385): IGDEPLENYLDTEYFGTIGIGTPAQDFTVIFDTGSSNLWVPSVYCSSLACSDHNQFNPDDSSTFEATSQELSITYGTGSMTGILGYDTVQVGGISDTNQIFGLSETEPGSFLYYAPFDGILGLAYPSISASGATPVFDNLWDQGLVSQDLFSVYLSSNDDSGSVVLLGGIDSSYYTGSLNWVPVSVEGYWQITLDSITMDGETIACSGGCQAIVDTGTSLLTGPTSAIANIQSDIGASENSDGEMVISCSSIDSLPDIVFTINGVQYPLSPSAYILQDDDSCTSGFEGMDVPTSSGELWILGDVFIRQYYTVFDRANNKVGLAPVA
Description: (§2) A stability assessment of the peptides was done in simulated gastric (SGF) and intestinal (SIF) fluids and human liver microsomes. The degradation kinetics of the aliquoted samples at desired time points were analyzed through RP-HPLC.

in vitro [7] = conditions: pig, simulated intestinal fluid
in vitro [8] = conditions: human, microsomes
Description: as §2

in vitro [9] = conditions: both, human, plasma; remark: listed apart in the source
[10] = rat, in vivo, po, 10 mg/kg
Description: (§3) All animals were housed individually in the animal facility at Anthem Biosciences Pvt. Ltd and were acclimatized for 3 days. All animals were fasted overnight before dosing, whereas access to water was provided ad libitum. Peptides were administered orally and via s.c. route and blood samples were collected at different time points through a jugular vein catheter.

in vivo = conditions: male, Wistar, rat
Description: as §3
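Wherever Papp A-B + Elacridar avg is given: Caco-2 monolayers used 21 days after seeding in HBSS-HEPES buffer with 1% DMSO, donor and acceptor levels quantified by LC-MS/MS, TEER checked before and after.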
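Wherever Papp A-B + Elacridar set 1 is given: Caco-2 monolayers used 21 days after seeding in HBSS-HEPES buffer with 1% DMSO, donor and acceptor levels quantified by LC-MS/MS, TEER checked before and after.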
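Wherever Papp A-B + Elacridar set 2 is given: Caco-2 monolayers used 21 days after seeding in HBSS-HEPES buffer with 1% DMSO, donor and acceptor levels quantified by LC-MS/MS, TEER checked before and after.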
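Wherever Papp A-B avg is given: Caco-2 monolayers used 21 days after seeding in HBSS-HEPES buffer with 1% DMSO, donor and acceptor levels quantified by LC-MS/MS, TEER checked before and after.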

Description for human liver microsomes: as §2

**Q.** For CC(C)C[C@@H]1NC(=O)[C@@H](CC(C)C)NC(=O)[C@H]2CCCN2C(=S)[C@H](CC(C)C)NC(=O)[C@@H](CC(C)C)NC(=O)[C@H](CC(C)C)NC(=O)[C@@H]2CCCN2C(=O)[C@@H](C)NC1=O [12b] (cyclo(L[dL][X4][dL]L[dA]P)), which “% solubility” value [1] is on record?
**A.** 49%

**Q.** And the Papp ([2]; Pe Avg)?
**A.** 2.6 ×10⁻⁶ cm/s

**Q.** What about the logD (physchem) of the same compound?
**A.** 1.61

**Q.** What about the tR [3] of the same compound?
**A.** 15.5 min

**Q.** With CC[C@H](C)[C@@H]1NC(=O)[C@@H]2CCCN2C(=O)[C@H]([C@@H](C)CC)NC(=O)[C@@H]2CCCN2C(=O)[C@H](Cc2ccccc2)NC(=O)[C@H](C)NC(=O)[C@H](C)NC1=O [compound 11, cyclo(-Ile^1-Ala-Ala-Phe-Pro-Ile-Pro^7-)] (cyclo(AAFPIPI)) as the compound, how does the “% solubility” value [1] read?
**A.** 95%

**Q.** And the Papp ([2]; Pe (PAMPA vs logD7.4))?
**A.** 0.41 ×10⁻⁶ cm/s

**Q.** And the Papp ([2]; Pe Avg)?
**A.** 0.4 ×10⁻⁶ cm/s

**Q.** And the logD (physchem)?
**A.** 0.1

**Q.** What about the tR [3] of the same compound?
**A.** 5.299 min

**Q.** Which “% solubility” value [1] does the source give for CC(C)C[C@@H]1NC(=O)[C@H](Cc2ccc(O)cc2)NC(=O)[C@H]2CCCN2C(=S)[C@H](CC(C)C)NC(=O)[C@H](CC(C)C)NC(=O)[C@@H](CC(C)C)NC1=O [10c] (cyclo(L[dL]L[X4]Y)) here?
**A.** 69%

**Q.** What about the “Pe Avg” value [2] of the same compound?
**A.** 3.1 ×10⁻⁶ cm/s

**Q.** And the “Pe set1” value [2]?
**A.** 2.92 ×10⁻⁶ cm/s

**Q.** And the “Pe set2” value [2]?
**A.** 3.69 ×10⁻⁶ cm/s

**Q.** What about the “Pe set3” value [2] of the same compound?
**A.** 2.79 ×10⁻⁶ cm/s

**Q.** And the Papp ([2]; Pe Avg)?
**A.** 3.1 ×10⁻⁶ cm/s

**Q.** And the logD heptane ethylene glycol [4]?
**A.** 0.72

**Q.** And the Papp B→A (in vitro [5]; Caco-2, Papp B-A + Elacridar avg)?
**A.** 0.6 ×10⁻⁶ cm/s

**Q.** And the Papp B→A (in vitro [5]; Caco-2, Papp B-A avg)?
**A.** 5.26 ×10⁻⁶ cm/s

**Q.** What about the “Papp A-B + Elacridar avg” value (Caco-2 cells) of the same compound?
**A.** 0 ×10⁻⁶ cm/s

**Q.** What about the “Papp A-B + Elacridar set 1” value (Caco-2 cells) of the same compound?
**A.** 0 ×10⁻⁶ cm/s

**Q.** What about the “Papp A-B + Elacridar set 2” value (Caco-2 cells) of the same compound?
**A.** 0 ×10⁻⁶ cm/s

**Q.** What about the “Papp A-B avg” value (Caco-2 cells) of the same compound?
**A.** 0 cm/s

**Q.** And the “Papp A-B avg (second block)” value (Caco-2 cells)?
**A.** 0.00 cm/s

**Q.** And the “Papp A-B set 1” value (Caco-2 cells)?
**A.** 0 cm/s

**Q.** And the “Papp A-B set 1 (second block)” value (Caco-2 cells)?
**A.** 0.00 cm/s

**Q.** What about the “Papp A-B set 2” value (Caco-2 cells) of the same compound?
**A.** 0 cm/s

**Q.** And the “Papp A-B set 2 (second block)” value (Caco-2 cells)?
**A.** 0.00 cm/s

**Q.** And the “Papp AB+Elacridar (PAMPA Caco2 correlation)” value (Caco-2 cells)?
**A.** 0 ×10⁻⁶ cm/s

**Q.** What about the “Papp B-A avg (second block)” value (Caco-2 cells) of the same compound?
**A.** 5.3 ×10⁻⁶ cm/s

**Q.** What about the “Papp B-A set 1 (second block)” value (Caco-2 cells) of the same compound?
**A.** 4.5 ×10⁻⁶ cm/s

**Q.** What about the “Papp B-A set 2 (second block)” value (Caco-2 cells) of the same compound?
**A.** 6.1 ×10⁻⁶ cm/s

**Q.** What about the Half lives (human liver microsomes) of the same compound?
**A.** 13.8

**Q.** And the logD (physchem)?
**A.** 1.27

**Q.** And the fraction unbound (in vitro [6])?
**A.** 0.24

**Q.** What about the half-life (pepsin) of the same compound?
**A.** 0.333 h

**Q.** And the remaining at 5 min (pepsin)?
**A.** 76%

**Q.** And the remaining at 10 min (pepsin)?
**A.** 68%

**Q.** What about the remaining at 20 min (pepsin) of the same compound?
**A.** 50%

**Q.** And the remaining at 0.5 h (pepsin)?
**A.** 41%

**Q.** And the remaining at 1 h (pepsin)?
**A.** 31%

**Q.** What about the remaining at 2 h (pepsin) of the same compound?
**A.** 26%

**Q.** And the remaining at 4 h (pepsin)?
**A.** 19%

**Q.** And the remaining at 8 h (pepsin)?
**A.** 12%

**Q.** And the remaining at 12 h (pepsin)?
**A.** 5%

**Q.** And the remaining at 24 h (pepsin)?
**A.** 0%

**Q.** And the half-life (in vitro [7])?
**A.** 0.567 h

**Q.** And the remaining at 10 min (in vitro [7])?
**A.** 70%

**Q.** What about the remaining at 0.5 h (in vitro [7]) of the same compound?
**A.** 50.7%

**Q.** What about the remaining at 1 h (in vitro [7]) of the same compound?
**A.** 46.6%

**Q.** What about the remaining at 2 h (in vitro [7]) of the same compound?
**A.** 38.4%

**Q.** And the remaining at 4 h (in vitro [7])?
**A.** 29.3%

**Q.** What about the remaining at 8 h (in vitro [7]) of the same compound?
**A.** 26.2%

**Q.** What about the remaining at 12 h (in vitro [7]) of the same compound?
**A.** 20.6%

**Q.** What about the remaining at 24 h (in vitro [7]) of the same compound?
**A.** 12.8%

**Q.** What about the microsomal CLint (in vitro [8]) of the same compound?
**A.** 106 µL/min/mg

**Q.** What about the remaining at 5 min (in vitro [8]) of the same compound?
**A.** 76%

**Q.** What about the remaining at 10 min (in vitro [8]) of the same compound?
**A.** 56%

**Q.** And the remaining at 20 min (in vitro [8])?
**A.** 45%

**Q.** What about the remaining at 0.5 h (in vitro [8]) of the same compound?
**A.** 35%

**Q.** And the remaining at 0.75 h (in vitro [8])?
**A.** 16%

**Q.** What about the remaining at 1 h (in vitro [8]) of the same compound?
**A.** 17%

**Q.** What about the half-life (in vitro [9]) of the same compound?
**A.** 21 h

**Q.** What about the remaining at 1 h (in vitro [9]) of the same compound?
**A.** 87%

**Q.** And the remaining at 3 h (in vitro [9])?
**A.** 83%

**Q.** And the remaining at 5 h (in vitro [9])?
**A.** 78%

**Q.** What about the remaining at 7 h (in vitro [9]) of the same compound?
**A.** 75%

**Q.** And the remaining at 9 h (in vitro [9])?
**A.** 64%

**Q.** And the remaining at 12 h (in vitro [9])?
**A.** 60%

**Q.** And the remaining at 24 h (in vitro [9])?
**A.** 44%

**Q.** And the remaining at 36 h (in vitro [9])?
**A.** 34%

**Q.** And the remaining at 48 h (in vitro [9])?
**A.** 26%

**Q.** What about the remaining at 60 h (in vitro [9]) of the same compound?
**A.** 10%

**Q.** What about the remaining at 72 h (in vitro [9]) of the same compound?
**A.** 12%

**Q.** What does the source list for CC(C)C[C@@H]1NC(=O)[C@@H]2CCCN2C(=O)[C@@H](C)NC(=S)[C@H](CC(C)C)NC(=O)[C@@H](CC(C)C)NC(=O)[C@H]2CCCN2C(=O)[C@H](CC(C)C)NC(=O)[C@@H](CC(C)C)NC1=O [12e] (cyclo([dL]L[dP][dL][X16]PL))?
**A.** % solubility [1]: 41%; Papp ([2]; Pe Avg): 5.7 ×10⁻⁶ cm/s; logD (physchem): 1.37; tR [3]: 15 min

**Q.** For CC(C)C[C@@H]1NC(=O)[C@@H](CC(C)C)NC(=O)[C@H]2CCCN2C(=O)[C@H](CC(C)C)NC(=O)[C@@H](CC(C)C)NC(=S)[C@H](CC(C)C)NC(=O)[C@@H]2CCCN2C(=O)[C@@H](C)NC1=O [12h] (cyclo([X3]L[dP][dL]L[dA]P)), which “% solubility” value [1] is on record?
**A.** 40%

**Q.** And the Papp ([2]; Pe Avg)?
**A.** 7.7 ×10⁻⁶ cm/s

**Q.** And the logD (physchem)?
**A.** 1.49

**Q.** And the tR [3]?
**A.** 16.4 min

**Q.** Which results are given for CC(C)C[C@@H]1NC(=O)[C@@H](CC(C)C)NC(=O)[C@H](CC(C)C)N(C)C(=O)[C@H](Cc2ccc(O)cc2)NC(=O)[C@H]2CCCN2C(=O)[C@H](CC(C)C)NC1=O [10k] (cyclo(LL[dP]Y[NMeL][dL]))?
**A.** Papp ([2]; Pe Avg): 6.13 ×10⁻⁶ cm/s; Half lives (human liver microsomes): 10.3; Fold Change of AUClast p.o [10]: 393; AUC(0-t) (in vivo; iv): 510 ng·h/mL; Cmax (in vivo; iv): 1170 ng/mL; MRT (in vivo; iv): 0.4 h; Vd (in vivo; iv): 0.8 L/kg; clearance (in vivo; iv): 33.3 mL/min/kg; bioavailability (in vivo; po): 6.8%; AUC(0-t) (in vivo; po, 10 mg/kg): 345 ng·h/mL; Cmax (in vivo; po, 10 mg/kg): 55.9 ng/mL; MRT (in vivo; po, 10 mg/kg): 9 h; level at 3 h (in vivo; po, 10 mg/kg): 26.6 ng/mL; logD (physchem): 1.2; fraction unbound (in vitro [6]): 0.53; half-life (pepsin): 1.75 h; remaining at 2 min (pepsin): 97%; remaining at 10 min (pepsin): 84%; remaining at 20 min (pepsin): 77%; remaining at 0.5 h (pepsin): 71%; remaining at 1 h (pepsin): 65%; remaining at 2 h (pepsin): 46%; remaining at 4 h (pepsin): 19%; remaining at 8 h (pepsin): 11%; remaining at 12 h (pepsin): 7%; half-life (in vitro [7]): 1.55 h; remaining at 10 min (in vitro [7]): 88%; remaining at 0.5 h (in vitro [7]): 75%; remaining at 1 h (in vitro [7]): 62%; remaining at 2 h (in vitro [7]): 39%; remaining at 4 h (in vitro [7]): 30%; remaining at 8 h (in vitro [7]): 6%; remaining at 12 h (in vitro [7]): 3%; microsomal CLint (in vitro [8]): 144 µL/min/mg; remaining at 2 min (in vitro [8]): 67%; remaining at 10 min (in vitro [8]): 50%; remaining at 20 min (in vitro [8]): 28%; remaining at 0.5 h (in vitro [8]): 16%; remaining at 0.75 h (in vitro [8]): 4.69%; remaining at 1 h (in vitro [8]): 5.45%; half-life (in vitro [9]): 12 h; remaining at 2 h (in vitro [9]): 82%; remaining at 4 h (in vitro [9]): 69%; remaining at 8 h (in vitro [9]): 57%; remaining at 16 h (in vitro [9]): 39%; remaining at 24 h (in vitro [9]): 28%; remaining at 48 h (in vitro [9]): 8%; remaining at 72 h (in vitro [9]): 2.65%

**Q.** What does the source list for CC(C)C[C@@H]1NC(=O)[C@@H](CC(C)C)NC(=O)[C@H]2CCCN2C(=O)[C@H](CC(C)C)NC(=O)[C@@H](CC(C)C)NC(=O)[C@H](CC(C)C)NC(=O)[C@@H]2CCCN2C(=O)[C@@H](C)NC1=O [compound 12, cyclo(-D-Leu^1-Leu-D-Pro-D-Leu-Leu-D-Ala-Pro-Leu^8-)] (cyclo(L[dA]PL[dL]L[dP][dL]))?
**A.** % solubility [1]: 94%; Papp ([2]; Pe Avg): 3 ×10⁻⁶ cm/s; logD (physchem): 0.75; tR [3]: 12.6 min
